Experimental data taken from the supplement of paper PMC10702517.
± gives the standard deviation.

Assay: chemical recovery into PDMS from spiked human plasma; higher = better extraction
Details: pooled human plasma; extraction method: PES with PDMS; equilibration time (d): 1

SMILES	chemical recovery into PDMS [%]
CC(C)(C)Nc1nc(N)nc(Cl)n1 [Desethylterbutylazine]	38 ± 1.5
COC(=O)Nc1nc2ccccc2[nH]1 [Carbendazim]	16.9 ± 1.1
C[C@]12CC[C@H]3[C@@H](CCC4=CC(=O)CC[C@@]43C)[C@@H]1CC[C@@H]2O [Testosterone]	29.7 ± 1.9
CCc1cccc(C)c1N(C(=O)C(=O)O)C(C)COC (configuration not stated) [Metolachlor OA]	19 ± 0.56
CC(C)CC(C)(O)C#CC(C)(O)CC(C)C (configuration not stated) [TMDD]	47.1 ± 4.9
CNC(=O)CSP(=O)(OC)OC [Omethoate]	4.04 ± 3.2
CC/C(=N\OC/C=C/Cl)C1=C(O)CC(C2CCOCC2)CC1=O (configuration not stated) [Tepraloxydim]	0.0964 ± 0.084
CC(C)NCC(O)COc1ccc(COCCOC(C)C)cc1 (configuration not stated) [Bisoprolol]	0.0185 ± 0.032
Cc1ccc2[nH]nnc2c1 [5-Methyl-1H-benzotriazole]	3.14 ± 0.15
CN1CCN(C2=Nc3cc(Cl)ccc3Nc3ccccc32)CC1 [Clozapine]	0.000645 ± 0.0011
Cc1cccc(C)c1N(Cn1cccn1)C(=O)CCl [Metazachlor]	40.1 ± 1.9
c1ccc2[nH]nnc2c1 [1H-Benzotriazole]	4.24 ± 0.36
N#C/N=C1\SCCN1Cc1ccc(Cl)nc1 [Thiacloprid]	18.1 ± 1.4
CSc1nc(NC2CC2)nc(NC(C)(C)C)n1 [Irgarol]	19.6 ± 7
Cc1ccccc1N [o-Toluidine]	0.669 ± 0.41
Clc1ccc(COC(Cn2ccnc2)c2ccc(Cl)cc2Cl)c(Cl)c1 (configuration not stated) [Miconazole]	33.6 ± 2.4
CCC(C)OC(=O)N1CCCCC1CCO (configuration not stated) [Icaridin]	27.3 ± 1.6

SMILES	chemical recovery into PDMS [%]
CN(C)C(=O)Nc1ccc(Oc2ccc(Cl)cc2)cc1 [Chloroxuron]	37.3 ± 1.7
O=C1CC2(CCCCC2)CN1 [Gabapentin-Lactam]	22.3 ± 0.47
N#Cc1nn(-c2c(Cl)cc(C(F)(F)F)cc2Cl)c(N)c1C(F)(F)F [Fipronil desulfinyl]	33.7 ± 0.57
CCOCCN(C(=O)CCl)C(=C(C)C)c1ccccc1 [Pethoxamid]	41 ± 2.5
CCCOC(=O)c1ccc(O)cc1 [Propylparaben]	11.6 ± 0.24
CC(Cc1ccc(C(C)(C)C)cc1)CN1C[C@@H](C)O[C@@H](C)C1 (some centres not stated) [Fenpropimorph]	0.0443 ± 0.064
CC(C)c1ccc(NC(=O)N(C)C)cc1 [Isoproturon]	37.1 ± 2.3
CN(C/C=C/C#CC(C)(C)C)Cc1cccc2ccccc12 [Terbinafine]	0.00204 ± 0.0035
OC(Cn1cncn1)(Cn1cncn1)c1ccc(F)cc1F [Fluconazole]	2.22 ± 0.25
Cn1ncc(N)c(Cl)c1=O [Methyldesphenylchloridazon]	1.07 ± 0.26
CCNc1nc(Cl)nc(NC(C)C)n1 [Atrazine]	34.5 ± 1.7
Cc1ccc(-c2cc(C(F)(F)F)nn2-c2ccc(S(N)(=O)=O)cc2)cc1 [Celecoxib]	1.77 ± 0.12
O=C(Nc1ccc(Cl)cc1)Nc1ccc(Cl)c(Cl)c1 [Triclocarban]	5.9 ± 0.44
NC(=O)N1c2ccccc2CC(O)c2ccccc21 (configuration not stated) [10,11-Dihydro-10-hydroxycarbamazepine]	0.612 ± 0.1
COCN(COC)c1nc(N(COC)COC)nc(N(COC)COC)n1 [Hexa(methoxymethyl)melamine]	39.4 ± 2.9
C[C@]12CC(=O)[C@H]3[C@@H](CCC4=CC(=O)CC[C@@]43C)[C@@H]1CC[C@@H]2O [11-Ketotestosterone]	4.7 ± 9.7

Same assay, conditions: pooled human plasma; extraction method: PES with PDMS; equilibration time (d): 3

SMILES	chemical recovery into PDMS [%]
N#Cc1cc(Br)c(O)c(Br)c1 [Bromoxynil]	0.00783 ± 0.014
CC(C)(C)Nc1nc(N)nc(Cl)n1 [Desethylterbutylazine]	40.9 ± 0.82
COC(=O)Nc1nc2ccccc2[nH]1 [Carbendazim]	25.7 ± 2.7
C[C@]12CC[C@H]3[C@@H](CCC4=CC(=O)CC[C@@]43C)[C@@H]1CC[C@@H]2O [Testosterone]	35.7 ± 2.2
CCc1cccc(C)c1N(C(=O)C(=O)O)C(C)COC (configuration not stated) [Metolachlor OA]	21.5 ± 1.7
C[C@]12C=CC(=O)C=C1CC[C@@H]1[C@@H]2C(=O)C[C@@]2(C)[C@H]1CC[C@]2(O)C(=O)CO [Prednisone]	0.176 ± 0.18
CNC(=O)CSP(=O)(OC)OC [Omethoate]	5.92 ± 3.5
CC/C(=N\OC/C=C/Cl)C1=C(O)CC(C2CCOCC2)CC1=O (configuration not stated) [Tepraloxydim]	0.473 ± 0.3
Cc1ccc2[nH]nnc2c1 [5-Methyl-1H-benzotriazole]	6.47 ± 1.2
Cc1cccc(C)c1N(Cn1cccn1)C(=O)CCl [Metazachlor]	42.9 ± 2.5
c1ccc2[nH]nnc2c1 [1H-Benzotriazole]	6.44 ± 1
N#C/N=C1\SCCN1Cc1ccc(Cl)nc1 [Thiacloprid]	26.3 ± 4.2
CSc1nc(NC2CC2)nc(NC(C)(C)C)n1 [Irgarol]	19.3 ± 6.5
Cc1ccccc1N [o-Toluidine]	0.533 ± 0.3
Clc1ccc(COC(Cn2ccnc2)c2ccc(Cl)cc2Cl)c(Cl)c1 (configuration not stated) [Miconazole]	34.9 ± 3.2
CCC(C)OC(=O)N1CCCCC1CCO (configuration not stated) [Icaridin]	31.3 ± 3.8
CN(C)C(=O)Nc1ccc(Oc2ccc(Cl)cc2)cc1 [Chloroxuron]	43.6 ± 2.7

SMILES	chemical recovery into PDMS [%]
O=C1CC2(CCCCC2)CN1 [Gabapentin-Lactam]	28.5 ± 1.6
N#Cc1nn(-c2c(Cl)cc(C(F)(F)F)cc2Cl)c(N)c1C(F)(F)F [Fipronil desulfinyl]	36.3 ± 2.9
CCOCCN(C(=O)CCl)C(=C(C)C)c1ccccc1 [Pethoxamid]	43.5 ± 3.3
CCCOC(=O)c1ccc(O)cc1 [Propylparaben]	13.2 ± 1.9
CC(Cc1ccc(C(C)(C)C)cc1)CN1C[C@@H](C)O[C@@H](C)C1 (some centres not stated) [Fenpropimorph]	0.0146 ± 0.013
c1ccc2c(c1)-c1cccc3cccc-2c13 [Fluoranthene]	106 ± 24
CC(C)c1ccc(NC(=O)N(C)C)cc1 [Isoproturon]	40.1 ± 2.3
CN(C/C=C/C#CC(C)(C)C)Cc1cccc2ccccc12 [Terbinafine]	0.065 ± 0.1
OC(Cn1cncn1)(Cn1cncn1)c1ccc(F)cc1F [Fluconazole]	4.26 ± 1.1
c1ccc2c(c1)Cc1cc3ccccc3cc1-2 [Benzo(b)fluorene]	107 ± 3.9
Cn1ncc(N)c(Cl)c1=O [Methyldesphenylchloridazon]	1.44 ± 0.31
CCNc1nc(Cl)nc(NC(C)C)n1 [Atrazine]	39.1 ± 2.9
Cc1ccc(-c2cc(C(F)(F)F)nn2-c2ccc(S(N)(=O)=O)cc2)cc1 [Celecoxib]	6.98 ± 2.7
O=C(Nc1ccc(Cl)cc1)Nc1ccc(Cl)c(Cl)c1 [Triclocarban]	7.7 ± 0.6
NC(=O)N1c2ccccc2CC(O)c2ccccc21 (configuration not stated) [10,11-Dihydro-10-hydroxycarbamazepine]	1.31 ± 0.36
Clc1cc(-c2cc(Cl)c(Cl)c(Cl)c2Cl)c(Cl)c(Cl)c1Cl [PCB194]	54.4 ± 6.3
COCN(COC)c1nc(N(COC)COC)nc(N(COC)COC)n1 [Hexa(methoxymethyl)melamine]	45.8 ± 2.6

Same assay, conditions: pooled human plasma; extraction method: PES with PDMS; equilibration time (d): 6

SMILES	chemical recovery into PDMS [%]
CC(C)(C)Nc1nc(N)nc(Cl)n1 [Desethylterbutylazine]	42.7 ± 1.9
COC(=O)Nc1nc2ccccc2[nH]1 [Carbendazim]	27.6 ± 2.8
C[C@]12CC[C@H]3[C@@H](CCC4=CC(=O)CC[C@@]43C)[C@@H]1CC[C@@H]2O [Testosterone]	35.6 ± 0.61
CCc1cccc(C)c1N(C(=O)C(=O)O)C(C)COC (configuration not stated) [Metolachlor OA]	21 ± 0.44
C[C@]12C=CC(=O)C=C1CC[C@@H]1[C@@H]2C(=O)C[C@@]2(C)[C@H]1CC[C@]2(O)C(=O)CO [Prednisone]	0.265 ± 0.091
CC(C)CC(C)(O)C#CC(C)(O)CC(C)C (configuration not stated) [TMDD]	60.2 ± 18
CNC(=O)CSP(=O)(OC)OC [Omethoate]	5.94 ± 4.2
CC/C(=N\OC/C=C/Cl)C1=C(O)CC(C2CCOCC2)CC1=O (configuration not stated) [Tepraloxydim]	0.369 ± 0.063
Cc1ccc2[nH]nnc2c1 [5-Methyl-1H-benzotriazole]	8.16 ± 2
Cc1cccc(C)c1N(Cn1cccn1)C(=O)CCl [Metazachlor]	42.7 ± 2.1
c1ccc2[nH]nnc2c1 [1H-Benzotriazole]	7.25 ± 1.5
N#C/N=C1\SCCN1Cc1ccc(Cl)nc1 [Thiacloprid]	29.8 ± 2.2
CSc1nc(NC2CC2)nc(NC(C)(C)C)n1 [Irgarol]	20.9 ± 3.9
Cc1ccccc1N [o-Toluidine]	0.369 ± 0.35
Clc1ccc(COC(Cn2ccnc2)c2ccc(Cl)cc2Cl)c(Cl)c1 (configuration not stated) [Miconazole]	31.5 ± 2.8
